The subject of data set [1] is Bemisia tabaci (Cotton White Fly). Kind of data set: Example B1: Bemisia tabaci feeding/contact activity, cotton leaf discs. As to conditions: foliar, 144 h, application rate of 200 ppm, adult white flies, 6 days after incubation. Format: in vivo. As for the experimental part:
Cotton leaf discs were placed on agar in 24-well microtiter plates and sprayed with aqueous test solutions prepared from 10,000 ppm DMSO stock solutions. After drying the leaf discs were infested with adult white flies. The samples were checked for mortality 6 days after incubation.

The subject of data set [2] is Euschistus heros (Neotropical Brown Stink Bug). Put plainly: Example B3: Euschistus heros, soybean leaves, N2 nymphs. Format: in vivo. As to conditions: for percent effect (mortality or growth inhibition) at 200 ppm: Euschistus heros, 120 h, application rate of 200 ppm, N2 nymphs, 5 days after infestation, read-out: effect in at least one of the two categories (mortality or growth inhibition); for mortality at 50 ppm: Concentration 50 ppm, Euschistus heros (Example B3), read-out: Mortality (%). Here is the method: Soybean leaves on agar in 24-well microtiter plates were sprayed with aqueous test solutions prepared from 10,000 ppm DMSO stock solutions. After drying the leaves were infested with N2 nymphs. The samples were assessed for mortality and growth inhibition in comparison to untreated samples 5 days after infestation.

The subject of data set [3] is Myzus persicae (Green peach aphid). Put plainly: Example B5: Myzus persicae feeding/contact activity, sunflower leaf discs. Format: in vivo. As to conditions: foliar; for mortality at 200 ppm: Myzus persicae, 144 h, application rate of 200 ppm, mixed ages, 6 days after infestation, read-out: mortality; for mortality at 12.5 ppm: Concentration 12.5 ppm, Myzus persicae (feeding/contact, Example B5), read-out: Mortality (%). As for the experimental part:
Sunflower leaf discs were placed onto agar in a 24-well microtiter plate and sprayed with aqueous test solutions prepared from 10,000 ppm DMSO stock solutions. After drying, the leaf discs were infested with an aphid population of mixed ages. The samples were assessed for mortality 6 days after infestation.

The test system is the same in data set [4]. Kind of data set: Example B6: Myzus persicae systemic activity, pea seedlings. The data set is classed as in vivo. As to conditions: for mortality at 24 ppm: Myzus persicae, 144 h, test rate of 24 ppm, mixed ages, 6 days after placing seedlings into test solutions, read-out: mortality; for mortality at 1.5 ppm: Concentration 1.5 ppm, Myzus persicae (systemic, Example B6), read-out: Mortality (%). Here is the method: Roots of pea seedlings infested with an aphid population of mixed ages were placed directly into aqueous test solutions prepared from 10,000 DMSO stock solutions. The samples were assessed for mortality 6 days after placing seedlings into test solutions.

Data set [5] relates to Plutella xylostella (Diamond Back Moth). Put plainly: Example B7: Plutella xylostella, artificial diet, L2 larvae. The data set is classed as in vivo. As to conditions: 120 h, application rate of 200 ppm, L2 larvae, 5 days after infestation, read-out: effect in at least one of the two categories (mortality or growth inhibition). As for the experimental part: 24-well microtiter plates with artificial diet were treated with aqueous test solutions prepared from 10,000 ppm DMSO stock solutions by pipetting. After drying, the plates were infested with L2 larvae (10 to 15 per well). The samples were assessed for mortality and growth inhibition in comparison to untreated samples 5 days after infestation.

Another data set relates to Melodoigyne incognita. Kind of data set: Example B14: Melodoigyne incognita juvenile mobility, in vitro profiling in 96 well plate. Format: in vivo. Particulars: 200 ppm; after 24 h; second stage juveniles; read-out: control (juvenile mobility). In short, it runs like this:
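Second-stage juveniles (100–150 per well, freshly harvested) were exposed in triplicate to test solutions prepared at 1000, 200, 100, 50, 25 and 12.5 ppm before nematode suspension was added. Plates were kept 24 h at room temperature in the dark. Juvenile mobility was measured by imaging and compared with 12 untreated replicates.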

For data set [6], the system named is Diabrotica Balteata (Corn Root Worm). Put plainly: Example B2: Diabrotica balteata, maize sprouts, L2 larvae. Format: in vivo. Particulars: Diabrotica balteata, 96 h, application rate of 200 ppm; L2 larvae; 4 days after infestation; read-out: effect in at least one of the two categories (mortality or growth inhibition). Here is the method:
Maize sprouts placed onto an agar layer in 24-well microtiter plates were treated with aqueous test solutions prepared from 10,000 ppm DMSO stock solutions by spraying. After drying, the plates were infested with L2 larvae (6 to 10 per well). The samples were assessed for mortality and growth inhibition in comparison to untreated samples 4 days after infestation.

In data set [7] the test system is Spodoptera littoralis (Egyptian Cotton Leaf Worm). Kind of data set: Example B9: Spodoptera littoralis, cotton leaf discs (mortality, anti-feeding, growth inhibition). Format: in vivo. As to conditions: foliar, 72 h, application rate of 200 ppm, L1 larvae, 3 days after infestation, read-out: control (mortality, anti-feeding effect or growth inhibition). As for the experimental part: Cotton leaf discs were placed onto agar in 24-well microtiter plates and sprayed with aqueous test solutions prepared from 10,000 ppm DMSO stock solutions. After drying the leaf discs were infested with five L1 larvae. The samples were assessed for mortality, anti-feeding effect, and growth inhibition in comparison to untreated samples 3 days after infestation. Control of Spodoptera littoralis by a test sample is given when at least one of the categories mortality, anti-feedant effect, and growth inhibition is higher than the untreated sample.

The subject of data set [8] is Tetranychus urticae (Two-Spotted Spider Mite). Kind of data set: Example B10: Tetranychus urticae feeding/contact activity, bean leaf discs. Particulars: foliar, 192 h, application rate of 200 ppm, mixed population (mobile stages), 8 days after infestation. Format: in vivo. As for the experimental part:
Bean leaf discs on agar in 24-well microtiter plates were sprayed with aqueous test solutions prepared from 10,000 ppm DMSO stock solutions. After drying the leaf discs were infested with a mite population of mixed ages. The samples were assessed for mortality on mixed population (mobile stages) 8 days after infestation.

Data set [9] concerns Myzus persicae (Green peach aphid). Put plainly: Example B19: Myzus persicae, mixed population, contact/feeding, pepper plants. The data set is classed as in vivo. As to conditions: Concentration 3 ppm, MYZUPE (contact). Here is the method: Pepper plants were infested with mixed aged aphid population and were treated 1 day after infestation with diluted test solutions in a spray chamber. 5 days after treatment samples were assessed for mortality.

Data set [10] has the same test system. Kind of data set: Example B20: Myzus persicae, mixed population, systemic into soil (drench), pea seedlings. Particulars: Concentration 0.2 ppm, MYZUPE (drench). Format: in vivo. Here is the method: Pea seedlings cultivated in field soil and infested 1 day before treatment with mixed aged aphid population were treated as drench application and checked for mortality 7 days after treatment.

Data set [11] relates to Nilaparvata lugens (Brown Plant Hopper). Kind of data set: Example B21: Nilaparvata lugens, larvicide, feeding/contact, rice plants. Particulars: Concentration 3 ppm, NILALU (contact). The data set is classed as in vivo. As for the experimental part:
Rice plants were treated with the diluted test solutions in a spray chamber. After drying plants were infested with ˜20 N3 nymphs. 7 days after the treatment samples were assessed for mortality and growth regulation.

In data set [12] the test system is Frankliniella occidentalis (Western Flower Thrips). Put plainly: Example B22: Frankliniella occidentalis, mixed population, contact/feeding, French bean plants. The data set is classed as in vivo. As to conditions: Concentration 50 ppm, FRANOC (contact). As for the experimental part: French bean plants were treated with diluted test solutions in a spray chamber. After drying plants were infested with a mixed aged thrips population. 7 days after infestation, samples were assessed for mortality.

Data set [13] has the same test system. Put plainly: Example B23: Frankliniella occidentalis, mixed population, systemic into soil (drench), French bean plants. As to conditions: Concentration 3 ppm, FRANOC (drench). The data set is classed as in vivo. Here is the method: French bean plants cultivated in field soil, were treated via drench application and 1 day after treatment they were infested with mixed aged thrips population. 8 days after infestation samples were assessed for mortality and phytotoxicity symptoms.

For data set [14] the test system is unchanged. Kind of data set: Example B4: Frankliniella occidentalis feeding/contact activity, sunflower leaf discs. The data set is classed as in vivo. Particulars: foliar, 168 h, application rate of 200 ppm, mixed ages, 7 days after infestation. Here is the method: Sunflower leaf discs were placed on agar in 24-well microtiter plates and sprayed with aqueous test solutions prepared from 10,000 DMSO stock solutions. After drying the leaf discs were infested with a Frankliniella population of mixed ages. The samples were assessed for mortality 7 days after infestation.

For data set [15], the system named is Thrips tabaci (Onion Thrips). Put plainly: Example B11: Thrips tabaci feeding/contact activity, sunflower leaf discs. Format: in vivo. As to conditions: foliar, 144 h, application rate of 200 ppm, mixed ages, 6 days after infestation. Here is the method: Sunflower leaf discs were placed on agar in 24-well microtiter plates and sprayed with aqueous test solutions prepared from 10,000 ppm DMSO stock solutions. After drying the leaf discs were infested with a thrips population of mixed ages. The samples were assessed for mortality 6 days after infestation.

The structures appear in SMILES notation. Bounds are passed on as bounds.

One may read the melting point as the temperature of the solid-liquid transition. Turning to `CCS(=O)(=O)c1cc(NC(=O)C(F)(F)F)ccc1-c1nc2cc(C(F)(F)F)ncc2n1C` [P3, N-[3-ethylsulfonyl-4-[3-methyl-6-(trifluoromethyl)imidazo[4,5-c]pyridin-2-yl]phenyl]-2,2,2-trifluoro-acetamide], the melting point was 260 °C.

In general, mortality refers to the share of the test organisms that died. With `CCS(=O)(=O)c1cc(N(C)C(=O)C(C)C)cnc1-c1nc2cc(C(F)(F)F)ncc2n1C` [P27, N-[5-ethylsulfonyl-6-[3-methyl-6-(trifluoromethyl)imidazo[4,5-c]pyridin-2-yl]-3-pyridyl]-N,2-dimethyl-propanamide], the mortality at 200 ppm in data set [1] and in data set [3] was at least 80% in each case. The percent effect (mortality or growth inhibition) at 200 ppm in data set [2] and in data set [5] was at least 80% throughout. In data set [4], the mortality at 24 ppm was at least 80%. The pest or weed control at 200 ppm in the data set with Melodoigyne incognita was at least 80%.

With `CCS(=O)(=O)c1cc(N2CCSCC2=O)cnc1-c1nc2cc(C(F)(F)F)ncc2n1C` [P19, 4-[5-ethyslulfonyl-6-[3-methyl-6-(trifluoromethyl)imidazo[4,5-c]pyridin-2-yl]-3-pyridyl]thiomorpholin-3-one], the melting point fell in the range of 211 to 213 °C. Moreover, the pest or weed control at 200 ppm in the data set with Melodoigyne incognita was at least 80%.

With `CCS(=O)(=O)c1cc(N2CCSC2=O)cnc1-c1nc2cc(C(F)(F)F)ncc2n1C` [P45, 3-[5-ethylsulfonyl-6-[3-methyl-6-(trifluoromethyl)imidazo[4,5-c]pyridin-2-yl]-3-pyridyl]thiazolidin-2-one], the mortality at 200 ppm in [1], in data set [3] and in data set [8] was at least 80% each time. For the same compound, the percent effect (mortality or growth inhibition) at 200 ppm in data set [6], in data set [2] and in data set [5] was at least 80% throughout. Further, the mortality at 50 ppm in data set [2] is 100%. In addition, the mortality at 12.5 ppm in data set [3] was 80%. In addition, in [4], the mortality at 1.5 ppm was found to be 50%. For the same compound, the mortality at 24 ppm in data set [4] is at least 80%. In data set [7], the percent control (mortality, anti-feedant effect or growth inhibition) at 200 ppm is at least 80%. The pest or weed control at 200 ppm with Melodoigyne incognita is at least 80%.

For `CCSc1cc(NC(=O)C(C)(C)O)cnc1-c1nc2cc(C(F)(F)F)ncc2n1C` [P7, N-[5-ethylsulfanyl-6-[3-methyl-6-(trifluoromethyl)imidazo[4,5-c]pyridin-2-yl]-3-pyridyl]-2-hydroxy-2-methyl-propanamide], the melting point was 195 to 196 °C.

Regarding `CCS(=O)(=O)c1ccc(N(C)C(C)=O)nc1-c1nc2cc(C(F)(F)F)ncc2n1C` [reference compound], the mortality at 3 ppm came out at 20% in [9], 30% in data set [11] and 35% in data set [13]. In addition, in [10], the mortality at 0.2 ppm was 50%. Moreover, the mortality at 50 ppm in [12] worked out at 0%.

Consider `CCSc1cc(NC(=O)C2CC2)cnc1-c1nc2cc(C(F)(F)F)ncc2n1C` [P1, N-[5-ethylsulfanyl-6-[3-methyl-6-(trifluoromethyl)imidazo[4,5-c]pyridin-2-yl]-3-pyridyl]cyclopropanecarboxamide], for which the percent effect (mortality or growth inhibition) at 200 ppm in [6] was at least 80%. The mortality at 200 ppm in data set [14] and in data set [15] was at least 80% throughout.

`CCS(=O)(=O)c1cc(N(C)C(=O)CSC)cnc1-c1nc2cc(C(F)(F)F)ncc2n1C` [P14, N-[5-ethylsulfonyl-6-[3-methyl-6-(trifluoromethyl)imidazo[4,5-c]pyridin-2-yl]-3-pyridyl]-N-methyl-2-methylsulfanyl-acetamide]: the mortality at 200 ppm in data set [1] and in data set [3] was at least 80% each time. For the same compound, the percent effect (mortality or growth inhibition) at 200 ppm in data set [6] and in [2] was at least 80% throughout. Moreover, the mortality at 24 ppm in [4] is at least 80%. Besides, in data set [7], the percent control (mortality, anti-feedant effect or growth inhibition) at 200 ppm was at least 80%. Also, in the data set on Melodoigyne incognita, the pest or weed control at 200 ppm was at least 80%.

With `CCN(C(C)=O)c1cnc(-c2nc3cc(C(F)(F)F)ncc3n2C)c(S(=O)(=O)CC)c1` [P21, N-ethyl-N-[5-ethylsulfonyl-6-[3-methyl-6-(trifluoromethyl)imidazo[4,5-c]pyridin-2-yl]-3-pyridyl]acetamide], the percent effect (mortality or growth inhibition) at 200 ppm in data set [6] and in data set [2] was at least 80% each time. In addition, in data set [2], the mortality at 50 ppm was 100%. In addition, the mortality at 200 ppm in data set [14], in data set [3] and in [8] was at least 80% in each case. In addition, in data set [3], the mortality at 12.5 ppm is 100%. Besides, in data set [4], the mortality at 1.5 ppm was determined as 100%. The mortality at 24 ppm in data set [4] was at least 80%. The pest or weed control at 200 ppm with Melodoigyne incognita is at least 80%.

On to `CCS(=O)(=O)c1cc(NC(=O)C2CC2)cnc1-c1nc2cc(C(F)(F)F)ncc2n1C` [P2, N-[5-ethylsulfonyl-6-[3-methyl-6-(trifluoromethyl)imidazo[4,5-c]pyridin-2-yl]-3-pyridyl]cyclopropanecarboxamide], for which the percent effect (mortality or growth inhibition) at 200 ppm in data set [6], in data set [2] and in data set [5] was at least 80% each time. Besides, the mortality at 200 ppm in data set [14], in [3] and in [15] was at least 80% each time. For the same compound, the mortality at 1.5 ppm in [4] came to 80%. For the same compound, the mortality at 24 ppm in data set [4] was at least 80%.

The values are drawn from patent publication US20210047291A1, “PESTICIDALLY ACTIVE HETEROCYCLIC DERIVATIVES WITH SULFUR CONTAINING SUBSTITUENTS” (SYNGENTA PARTICIPATIONS AG, priority 2018, published 2021).
